Results from patent publication US11266714B2, “Chloride salt of TAT-NR2B9C” (NoNO Inc., priority 2014, dated 2022).
No end group written: not given here.

Experiment: Solubility study of TAT-NR2B9c, visual analysis
Format: physicochemical
Conditions: pH 6.5, 35, 50, 75 and 100 mg/mL, t=0 and t=24 hours
Procedure: Due to the relatively low Tg temperatures that would likely require a longer lyophilization cycle to dry, we looked at a wider range of standard bulking agents and looked to reduce the fill volume into the container closure system so that there would be a reduced volume of liquid to lyophilize. […] Samples were visually analyzed at 35, 50, 75 and 100 mg/mL. All solutions were clear at t=0 and t=24 hours. […] A wide range of quantities may be required in a vial, but 270 mg would provide a […] dose for a 100 kg patient. Assuming the target reconstitution concentration for patient administration is still 20 mg/mL (but can be from 1 mg/ml to 100 mg/ml), then a 20-mL lyophilization vial containing 270 mg of TAT-NR2B9c can be used with a reconstitution volume of 13.5 mL. Therefore, optimal volumes of liquid for lyophilization of TAT-NR2B9c in the vial would be between 2.5 mL and 10 mL.

Sequence: YGRKKRRQRRRKLSSIESDV [TAT-NR2B9c]
- solubility, visual analysis (in Histidine+Trehalose): clear
- solubility, visual analysis (in Histidine): clear
